From ChEMBL document CHEMBL3352775, “Identification of substituted 3-hydroxy-2-mercaptocyclohex-2-enones as potent inhibitors of human lactate dehydrogenase” (Bioorg Med Chem Lett, 2014)
Converted amounts (≈) assume the structure as drawn.

What was measured:
[1] = biological target: T1, L-lactate dehydrogenase A chain (Homo sapiens, UniProt P00338); assay: Inhibition of human recombinant carboxy-terminal His-tagged LDHA by UV endpoint assay
[2] = biological target: T1, L-lactate dehydrogenase A chain; assay: Inhibition of human recombinant carboxy-terminal His-tagged LDHA by SPR assay
[3] = biological target: L-lactate dehydrogenase B chain (Homo sapiens, UniProt P07195)
Description: Inhibition of human recombinant carboxy-terminal His-tagged LDHB by UV endpoint assay

[4] = Clearance in Sprague-Dawley rat liver microsomes at 1 uM up to 60 mins by LC-MS/MS analysis; assay type: ADME
[5] = Clearance in human liver microsomes at 1 uM up to 60 mins by LC-MS/MS analysis; assay type: ADME
[6] = Aqueous solubility of the compound in PBS buffer at pH 7.2; assay type: physicochemical
Cytochrome P450 3A4 = Cytochrome P450 3A4 (Homo sapiens, UniProt P08684); assay: Inhibition of CYP3A4 (unknown origin); assay type: ADME
Cytochrome P450 2D6 = Cytochrome P450 2D6 (Homo sapiens, UniProt P10635); assay: Inhibition of CYP2D6 (unknown origin); assay type: ADME
Cytochrome P450 2C9 = Cytochrome P450 2C9 (Homo sapiens, UniProt P11712); assay: Inhibition of CYP2C9 (unknown origin); assay type: ADME
Cytochrome P450 1A2 = biological target: T2, Cytochrome P450 1A2 (Homo sapiens, UniProt P05177); assay: Inhibition of CYP1A2 (unknown origin); assay type: ADME
T2 sequence (P05177 whole entry): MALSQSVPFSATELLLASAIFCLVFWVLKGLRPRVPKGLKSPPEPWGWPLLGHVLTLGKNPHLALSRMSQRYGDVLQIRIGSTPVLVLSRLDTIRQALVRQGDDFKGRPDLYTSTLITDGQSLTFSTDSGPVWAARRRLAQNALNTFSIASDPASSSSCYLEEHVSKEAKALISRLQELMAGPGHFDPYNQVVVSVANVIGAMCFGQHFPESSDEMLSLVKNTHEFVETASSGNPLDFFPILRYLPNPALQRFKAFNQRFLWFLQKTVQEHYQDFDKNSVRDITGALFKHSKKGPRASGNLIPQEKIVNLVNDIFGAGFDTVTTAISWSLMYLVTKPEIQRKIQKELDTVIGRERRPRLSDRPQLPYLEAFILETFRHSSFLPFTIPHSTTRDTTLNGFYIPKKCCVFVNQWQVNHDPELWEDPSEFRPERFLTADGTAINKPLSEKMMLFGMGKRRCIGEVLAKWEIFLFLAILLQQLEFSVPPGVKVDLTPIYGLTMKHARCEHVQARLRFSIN

[7] = Fraction unbound in rat plasma by LC-MS/MS analysis; assay type: ADME, cell-free
[8] = Fraction unbound in human plasma by LC-MS/MS analysis; assay type: ADME, cell-free
[9] = Apparent permeability from apical to basolateral side in MDCK cells at 2 uM by LC-MS/MS analysis; assay type: ADME, cell-based, Canis lupus familiaris; conditions: dog
[10] = AUC (0 to 24 hrs) in Sprague-Dawley rat at 0.5 mg/kg, iv; assay type: ADME, organism-based; set-up: time < 24 hr, dose 0.5 mg/kg, route intravenous; conditions: plasma
[11] = Clearance in Sprague-Dawley rat plasma at 0.5 mg/kg, iv by LC-MS/MS analysis; assay type: ADME, organism-based; set-up: dose 0.5 mg/kg, route intravenous
[12] = Volume of distribution at steady state in Sprague-Dawley rat at 0.5 mg/kg, iv; assay type: ADME, organism-based; set-up: dose 0.5 mg/kg, route intravenous; conditions: in vivo, read-out: Vdss
[13] = Half life in Sprague-Dawley rat plasma at 0.5 mg/kg, iv; assay type: ADME, organism-based; set-up: dose 0.5 mg/kg, route intravenous
[14] = AUC (0 to 24 hrs) in Sprague-Dawley rat at 2 mg/kg, po; assay type: ADME, organism-based; set-up: time < 24 hr, dose 2 mg/kg, route oral; conditions: plasma
[15] = Half life in Sprague-Dawley rat plasma at 2 mg/kg, po; assay type: ADME, organism-based; set-up: dose 2 mg/kg, route oral
[16] = Oral bioavailability in Sprague-Dawley rat plasma at 2 mg/kg; assay type: ADME, organism-based
[17] = biological target: T3, Malate dehydrogenase, cytoplasmic (Homo sapiens, UniProt P40925); assay: Inhibition of human recombinant carboxy-terminal His-tagged MDH-1
T3 sequence (P40925 whole entry): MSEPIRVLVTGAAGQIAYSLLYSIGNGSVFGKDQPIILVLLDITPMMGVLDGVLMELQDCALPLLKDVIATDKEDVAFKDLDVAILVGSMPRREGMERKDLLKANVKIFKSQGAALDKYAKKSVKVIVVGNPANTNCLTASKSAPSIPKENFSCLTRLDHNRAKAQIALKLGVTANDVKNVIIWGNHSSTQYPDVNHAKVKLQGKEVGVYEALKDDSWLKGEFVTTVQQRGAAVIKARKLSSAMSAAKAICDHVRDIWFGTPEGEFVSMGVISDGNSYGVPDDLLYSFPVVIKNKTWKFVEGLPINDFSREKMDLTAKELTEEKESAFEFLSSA

[18] = biological target: T4, Malate dehydrogenase, mitochondrial (Homo sapiens, UniProt P40926); assay: Inhibition of human recombinant carboxy-terminal His-tagged MDH-2
T4 sequence (P40926 whole entry): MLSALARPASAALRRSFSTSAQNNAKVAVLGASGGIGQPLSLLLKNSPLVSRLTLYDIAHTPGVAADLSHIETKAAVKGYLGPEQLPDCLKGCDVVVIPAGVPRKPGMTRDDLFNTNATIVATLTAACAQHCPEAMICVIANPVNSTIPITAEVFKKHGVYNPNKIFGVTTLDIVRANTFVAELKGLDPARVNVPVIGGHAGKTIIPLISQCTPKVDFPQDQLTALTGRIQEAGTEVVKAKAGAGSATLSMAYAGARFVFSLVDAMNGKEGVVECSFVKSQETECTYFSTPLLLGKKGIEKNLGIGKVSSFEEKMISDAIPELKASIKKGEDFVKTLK

[19] = biological target: T1, L-lactate dehydrogenase A chain; assay: Inhibition of human recombinant carboxy-terminal His-tagged LDHA by MS endpoint assay
[20] = biological target: T1, L-lactate dehydrogenase A chain; assay: Inhibition of human recombinant carboxy-terminal His-tagged LDHA by SPR assay in presence of +NADH
[21] = Dissociation constant, pKa of the compound; assay type: physicochemical

Cytochrome P450 2D6, sequence (P10635 whole entry): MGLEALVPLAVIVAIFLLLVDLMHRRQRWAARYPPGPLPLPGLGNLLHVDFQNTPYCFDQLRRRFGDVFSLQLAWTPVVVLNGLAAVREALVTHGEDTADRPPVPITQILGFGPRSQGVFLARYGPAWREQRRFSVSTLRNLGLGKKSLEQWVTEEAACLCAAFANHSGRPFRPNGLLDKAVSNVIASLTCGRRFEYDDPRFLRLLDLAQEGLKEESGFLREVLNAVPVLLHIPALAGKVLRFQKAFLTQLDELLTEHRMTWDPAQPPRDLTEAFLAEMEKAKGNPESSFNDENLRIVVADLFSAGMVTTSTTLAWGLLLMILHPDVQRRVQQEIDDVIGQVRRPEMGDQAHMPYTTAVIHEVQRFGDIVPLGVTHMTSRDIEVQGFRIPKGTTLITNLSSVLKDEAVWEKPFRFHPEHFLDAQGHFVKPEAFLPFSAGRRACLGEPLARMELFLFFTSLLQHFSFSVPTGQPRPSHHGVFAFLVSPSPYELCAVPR
L-lactate dehydrogenase B chain, sequence (P07195 whole entry): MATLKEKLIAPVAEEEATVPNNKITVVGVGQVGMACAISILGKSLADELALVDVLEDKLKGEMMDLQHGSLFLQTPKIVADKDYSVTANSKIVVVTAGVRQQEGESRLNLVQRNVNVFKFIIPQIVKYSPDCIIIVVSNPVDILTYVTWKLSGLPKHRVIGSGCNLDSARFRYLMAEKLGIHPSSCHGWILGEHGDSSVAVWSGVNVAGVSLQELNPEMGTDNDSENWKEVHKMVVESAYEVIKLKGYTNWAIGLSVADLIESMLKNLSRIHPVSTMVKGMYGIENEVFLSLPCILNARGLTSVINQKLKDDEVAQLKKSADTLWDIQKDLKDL
Cytochrome P450 3A4, sequence (P08684 whole entry): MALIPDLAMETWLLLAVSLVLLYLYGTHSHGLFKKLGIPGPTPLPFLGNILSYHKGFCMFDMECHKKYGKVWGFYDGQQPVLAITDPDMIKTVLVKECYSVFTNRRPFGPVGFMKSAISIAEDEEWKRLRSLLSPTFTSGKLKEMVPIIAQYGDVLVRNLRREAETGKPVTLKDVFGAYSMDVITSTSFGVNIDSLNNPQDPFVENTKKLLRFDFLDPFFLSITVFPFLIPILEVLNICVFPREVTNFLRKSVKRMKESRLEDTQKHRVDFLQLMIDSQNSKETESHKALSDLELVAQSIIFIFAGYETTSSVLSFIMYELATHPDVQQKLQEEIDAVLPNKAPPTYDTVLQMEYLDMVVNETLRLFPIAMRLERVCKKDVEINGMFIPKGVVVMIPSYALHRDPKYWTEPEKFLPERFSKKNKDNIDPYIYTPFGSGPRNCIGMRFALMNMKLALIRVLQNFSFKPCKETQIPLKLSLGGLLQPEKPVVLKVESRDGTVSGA
Cytochrome P450 2C9, sequence (P11712 whole entry): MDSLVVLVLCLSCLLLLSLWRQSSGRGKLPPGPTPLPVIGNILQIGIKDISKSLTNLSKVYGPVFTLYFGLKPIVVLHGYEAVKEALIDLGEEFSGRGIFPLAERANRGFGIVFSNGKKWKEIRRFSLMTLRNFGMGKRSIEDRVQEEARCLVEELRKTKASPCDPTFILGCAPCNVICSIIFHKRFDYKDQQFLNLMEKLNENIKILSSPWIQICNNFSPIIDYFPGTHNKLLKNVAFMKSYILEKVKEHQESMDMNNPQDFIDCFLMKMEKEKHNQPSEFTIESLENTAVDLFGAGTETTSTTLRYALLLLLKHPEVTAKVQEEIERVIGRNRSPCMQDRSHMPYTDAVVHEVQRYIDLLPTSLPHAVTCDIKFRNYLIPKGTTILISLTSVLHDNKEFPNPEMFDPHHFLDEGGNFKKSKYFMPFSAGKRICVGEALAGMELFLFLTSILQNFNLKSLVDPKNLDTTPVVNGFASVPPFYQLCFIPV

IC50 [1] [µM] | Kd [2] [µM] | IC50 [3] [µM] | CLhep predicted at 1 µM [4] [mL/min/kg] | CLhep predicted at 1 µM [5] [mL/min/kg] | solubility [6] [µM] | IC50 (Cytochrome P450 3A4) [µM] | IC50 (Cytochrome P450 2D6) [µM] | IC50 (Cytochrome P450 2C9) [µM] | IC50 (Cytochrome P450 1A2) [µM] | Compound | further results
18 | 27 |  |  |  |  |  |  |  |  | O=C1CC(c2ccc(Cl)cc2)CC(O)=C1Sc1ccccc1Cl (centres undefined) | 
0.27 |  | 15 |  |  |  |  |  |  |  | O=C1CC(c2c(Br)cccc2Br)CC(O)=C1Sc1ccccc1Cl (centres undefined) | 
15 |  | 7.4 | 38 | 18 | 143 (≈ 66.8 µg/mL) | > 5 | > 5 | > 5 | > 5 | O=C1CC(c2c(C(F)(F)F)cccc2C(F)(F)F)CC(O)=C1Sc1ccccc1Cl (centres undefined) | 
0.64 |  | 2.8 |  |  |  |  |  |  |  | N#Cc1ccccc1SC1=C(O)CC(c2c(Cl)cccc2C(F)(F)F)CC1=O (centres undefined) | 
0.87 | 1.8 |  | 27 | 14 | 128 (≈ 51.2 µg/mL) | > 5 | > 5 | > 5 | > 5 | O=C1CC(c2c(Cl)cccc2Cl)CC(O)=C1Sc1ccccc1Cl (centres undefined) | fraction unbound [7]: 0.002; fraction unbound [8]: 0.005; Papp A→B at 2 µM [9]: 17 ×10⁻⁶ cm/s; AUC(0-t) at 24 h [10]: 60.3 µM·h; clearance [11]: 0.35 mL/min/kg; Vd [12]: 0.39 L; half-life [13]: 13.2 h; AUC(0-t) at 24 h [14]: 142 µM·h; half-life [15]: 10.7 h; bioavailability [16]: 45%; IC50 [17]: > 100 µM; IC50 [18]: > 100 µM
0.58 | 0.49 | 3.4 |  |  |  |  |  |  |  | O=C1CC(c2c(Cl)cccc2Br)CC(O)=C1Sc1ccccc1Cl (centres undefined) | 
2.3 |  | 1.9 |  |  |  |  |  |  |  | Cc1cccc(C)c1C1CC(=O)C(Sc2ccccc2Cl)=C(O)C1 (centres undefined) | 
5.6 | 8.2 |  |  |  |  |  |  |  |  | O=C1CC(c2ccccc2Cl)CC(O)=C1Sc1ccccc1Cl (centres undefined) | 
3.7 |  | 5.3 |  |  |  |  |  |  |  | O=C1CC(c2c(F)cccc2Cl)CC(O)=C1Sc1ccccc1Cl (centres undefined) | 
1.7 | 771 |  |  |  |  |  |  |  |  | O=C1CC(c2ccccc2)CC(O)=C1Sc1ccccc1[N+](=O)[O-] (centres undefined) | IC50 [19]: 0.88 µM; Kd [20]: 3.5 µM; pKa [21]: 2.63
19 | 13 | 6.9 |  |  |  |  |  |  |  | COc1ccc(C2CC(=O)C(Sc3ccccc3Cl)=C(O)C2)cc1 (centres undefined) | 
3.1 |  | 6.6 |  |  |  |  |  |  |  | N#Cc1ccccc1SC1=C(O)CC(c2ccccc2Cl)CC1=O (centres undefined) | 
0.83 | 0.43 | 4.9 | 24 | 12 | 117 (≈ 45.7 µg/mL) | > 5 | > 5 | > 5 | > 5 | N#Cc1ccccc1SC1=C(O)CC(c2c(Cl)cccc2Cl)CC1=O (centres undefined) | 
5.6 | 7.1 |  |  |  |  |  |  |  |  | O=C1CC(c2cccc(Cl)c2)CC(O)=C1Sc1ccccc1Cl (centres undefined) | 
7.4 |  | 1.3 |  |  |  |  |  |  |  | O=C1CC(c2c(F)cccc2F)CC(O)=C1Sc1ccccc1Cl (centres undefined) | 
4.6 | 4.3 |  | 14 | 3.9 | 147 (≈ 48.6 µg/mL) | > 5 | > 5 | > 5 | > 5 | O=C1CC(c2ccccc2)CC(O)=C1Sc1ccccc1Cl (centres undefined) | fraction unbound [7]: 0.002; fraction unbound [8]: 0.001; Papp A→B at 2 µM [9]: 18 ×10⁻⁶ cm/s
17 |  | > 10 |  |  |  |  |  |  |  | N#Cc1ccccc1SC1=C(O)CC(c2ccc(Cl)cc2)CC1=O (centres undefined) | 
1 | 0.5 |  | 37 | 17 | 117 (≈ 50.7 µg/mL) | > 5 | > 5 | > 5 | > 5 | O=C1CC(c2c(Cl)cccc2C(F)(F)F)CC(O)=C1Sc1ccccc1Cl (centres undefined) | 
1.6 | 1.5 |  | 5.2 | 1.6 | 118 (≈ 37.9 µg/mL) | > 5 | > 5 | > 5 | > 5 | N#Cc1ccccc1SC1=C(O)CC(c2ccccc2)CC1=O (centres undefined) | fraction unbound [7]: 0.01; fraction unbound [8]: 0.001; Papp A→B at 2 µM [9]: 4.1 ×10⁻⁶ cm/s
2.1 |  | 7.8 |  |  |  |  |  |  |  | Cc1cccc(C)c1C1CC(=O)C(Sc2ccccc2C#N)=C(O)C1 (centres undefined) | 
0.45 | 0.24 | 2 | 31 | 15 | 75 (≈ 32.6 µg/mL) | > 5 | > 5 | > 5 | > 5 | N#Cc1ccccc1SC1=C(O)CC(c2c(Cl)cccc2Br)CC1=O (centres undefined) | fraction unbound [7]: 0.005; fraction unbound [8]: 0.002; Papp A→B at 2 µM [9]: 14 ×10⁻⁶ cm/s
6.8 |  | > 10 |  |  |  |  |  |  |  | N#Cc1ccccc1SC1=C(O)CC(c2cccc(Cl)c2)CC1=O (centres undefined) | 
0.5 | 0.37 | > 10 |  |  |  |  |  |  |  | O=C1CC(c2c(Cl)ccc(Br)c2Cl)CC(O)=C1Sc1ccccc1Cl (centres undefined) | 
